Calls of active or inactive are those of the source. The calls are words filed in the database; no cut-off is given here.
Key:
[1] = system: K562; assay: Cytotoxicity in human K562 cells assessed as reduction in cell viability incubated for 72 hrs by MTT assay; assay type: functional, cell-based; settings: K562, 72 h
[2] = system: K562; assay: Induction of mitochondrial membrane potential loss in human K562 cells at 7.5 uM after 6 hrs by Mitotracker Red dye based flow cytometric analysis; assay type: functional, cell-based

For `N[C@H]1CCN(C(=O)c2cc3c(O)c4c(c(O)c3s2)C(=O)c2ccccc2C4=O)C1`, the IC50 [1] was 300 nM and the Activity [2] was “inactive”.
